Experimental data published in US4368203A, “Antibiotics and derivatives thereof having β-lactamase inhibitory activity and production thereof” (priority 1977, dated 1983).
≈ marks a conversion by molar mass, not a printed value.

Key:
[1] = test system: Proteus sp. P-22; assay: MIC, broth dilution method; settings: 20 h, read-out: Minimum inhibitory concentration
[2] = test system: Enterobacter sp. E-8; assay: MIC, broth dilution method; settings: SP.E8, 20 h, read-out: Minimum inhibitory concentration
[3] = test system: Providencia sp. P-8; assay: MIC, broth dilution method; settings: SP.P8, 20 h, read-out: Minimum inhibitory concentration
[4] = test system: Serratia marcescens S-18; assay: MIC, broth dilution method; settings: S18, 20 h, read-out: Minimum inhibitory concentration
[5] = test system: Staphylococcus aureus Rassell; assay: MIC, broth dilution method; settings: 20 h, read-out: Minimum inhibitory concentration
[6] = molecular target: T1, Exo-penicillinase of Bacillus licheniformis 749/C (ATCC 25972) (Bacillus licheniformis, UniProt P00808); assay: Susceptibility to beta-lactamase as enzymic substrate; format: biochemical; settings: 15 minutes, 30° C., PS-6 3.3 μg/ml, optical density at 301 nm
T1 construct: made in house; host or cells: Bacillus licheniformis 749/C (ATCC 25972)
Procedure: (a) Exo-penicillinase of Bacillus licheniformis 749/C (ATCC 25972). Purified by cephalexin-Sepharose 4B (Pharmacia Fine Chemicals AB) affinity column chromatography. The potency of this enzyme preparation was 16,600 units/ml. when the hydrolysis of potassium penicillin G was measured by iodometry at 30° C. in M/10, pH 6.8, phosphate buffer. One unit of penicillinase means the amount of enzyme that can hydrolyze 1 micromole of penicillin G for 60 minutes at 30° C. with a pH 6.8.
Time course of the hydrolysis was traced at 30° C. by determining the decrease in optical density at 301 nm which corresponds specifically to the concentration of antibiotic PS-6. As described in Japanese Patent Application No. 94651/77, the antibiotic PS-5 sodium salt preparation gave a E1 cm^1% value of 267.5 at the λmax of 301 nm. If this preparation contained no water of crystallization, its epsilon value would be 8560.
As 5% of the initial optical density of antibiotic PS-5 at 301 nm remained even after the complete decomposition with hydroxylamine or beta-lactamase, the differential optical density of this substrate at 301 nm was supposed to be Δε=8132. This was supposed to be applicable to the antibiotic PS-6, and the following calculation was carried out.
(a) Exo-penicillinase of Bacillus licheniformis 749/C.

[7] = test system: Staphylococcus aureus Bx-1633; assay: MIC, broth dilution method; settings: BX1633, 20 h, read-out: Minimum inhibitory concentration
[8] = test system: Klebsiella pneumoniae K-2; assay: MIC, broth dilution method; settings: Klebsiella pneumoniae, K2, 20 h, read-out: Minimum inhibitory concentration
[9] = test system: Proteus vulgaris P-5; assay: MIC, broth dilution method; settings: Proteus vulgaris, P5, 20 h, read-out: Minimum inhibitory concentration
[10] = test system: Enterobacter aerogenes E-19; assay: MIC, broth dilution method; settings: Klebsiella aerogenes, E19, 20 h, read-out: Minimum inhibitory concentration

T1 sequence (P00808 43-307): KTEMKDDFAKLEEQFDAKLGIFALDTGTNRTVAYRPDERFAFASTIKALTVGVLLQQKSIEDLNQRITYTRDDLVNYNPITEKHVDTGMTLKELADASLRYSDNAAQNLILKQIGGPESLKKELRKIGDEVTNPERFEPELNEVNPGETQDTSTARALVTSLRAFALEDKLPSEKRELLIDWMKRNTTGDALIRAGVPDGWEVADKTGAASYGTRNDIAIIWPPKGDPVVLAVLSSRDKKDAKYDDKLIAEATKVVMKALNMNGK

CC(=O)NCCSC1=C(C(=O)O)N2C(=O)C(C(C)C)C2C1 (stereo not shown) [Antibiotic PS-6]
MIC [1]: 12.5 µg/mL (≈ 40 µM)
MIC [2]: 12.5 µg/mL (≈ 40 µM)
MIC [3]: 12.5 µg/mL (≈ 40 µM)
MIC [4]: 50 µg/mL (≈ 160 µM)
MIC [5]: 1.34 µg/mL (≈ 4.29 µM)
Hydrolysis by the beta-lactamase [6]: without a substantial hydrolysis
MIC [7]: 0.33 µg/mL (≈ 1.06 µM)
MIC [8]: 12.5 µg/mL (≈ 40 µM)
MIC [9]: 25 µg/mL (≈ 80 µM)
MIC [10]: 25 µg/mL (≈ 80 µM)
